Experimental data from patent US20240238268A1, “TREATMENTS AND METHODS FOR TREATING ALZHEIMER'S DISEASE” (Board of Supervisors of Louisiana State University and …, priority 2021, published 2024).

Experiments:
[1] = target: T1, PRMT4 (Mus musculus, UniProt Q9WVG6); test: PRMT4 protein level in brain, capillary-based immunoassay; assay type: in vivo; settings: IP
T1 construct: Protein was extracted from dissected tissue in an extraction buffer; from tissue; host or cells: mouse brain (cortex, hippocampus, whole brain lysate) of 3xTg-AD and C57BL/6J mice
T1 sequence (Q9WVG6 1-608): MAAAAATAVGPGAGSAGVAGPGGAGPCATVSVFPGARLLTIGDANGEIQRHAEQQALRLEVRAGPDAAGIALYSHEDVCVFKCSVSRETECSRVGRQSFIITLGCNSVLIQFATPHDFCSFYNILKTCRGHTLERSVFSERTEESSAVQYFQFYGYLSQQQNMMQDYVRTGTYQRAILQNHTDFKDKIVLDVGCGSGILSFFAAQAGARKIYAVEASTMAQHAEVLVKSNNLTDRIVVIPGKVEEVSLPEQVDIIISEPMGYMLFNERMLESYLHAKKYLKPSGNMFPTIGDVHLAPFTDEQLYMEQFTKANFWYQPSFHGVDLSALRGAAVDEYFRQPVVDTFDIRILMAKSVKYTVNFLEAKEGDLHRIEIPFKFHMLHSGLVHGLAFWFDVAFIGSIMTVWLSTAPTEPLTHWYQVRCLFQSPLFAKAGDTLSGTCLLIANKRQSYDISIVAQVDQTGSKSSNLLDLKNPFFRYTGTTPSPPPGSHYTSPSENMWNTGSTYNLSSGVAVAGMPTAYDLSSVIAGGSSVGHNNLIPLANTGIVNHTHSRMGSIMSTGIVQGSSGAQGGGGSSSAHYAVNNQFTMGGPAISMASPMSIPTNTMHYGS
Method: Dosage, delivery of TP-064: PRMT4 specific inhibitor (TP-064, 30 mg/kg/day for 7 days, IP) was administered once daily for 7 or 21 days to young (4-6 months) and aged (9-12 months) C57BL/6J and 3xTg-AD, male and female mice. The inventors have found a dose response curve that evidences that 30 mg/kg (I.P.) of TP-064 decreases PRMT4 (FIG. 10A). TP-064 was dissolved in 100% DMSO, diluted in 0.9% saline (total injection volume=100 μL, ˜1.5% DMSO in mouse), greater than 5% DMSO can affect the brain.
Treatment regimen: Aged (9-12 month) females from both C57BL6/J as well as 3xTg-AD strains were randomly selected and placed in experimental groups. Treatment consisted of specific PRMT4 inhibitor TP-064 (Cat. No. 6008, Tocris, Minneapolis, MN) (Zhang, de Boer, van der Wel, Van Eck, & Hoekstra, 2021); (Zhong et al., 2018). The pharmacological mechanism of TP-064 has not been well-elucidated though it is thought to act as an allosteric inhibitor of the PRMT4 active site (Nakayama et al., 2018). Based on the pharmacokinetic data provided by the Structural Genomics Consortium (https://www.thesgc.org/), a dose of 30 mg/kg was selected. […] Final dose was calculated based on animal weight.
Capillary-phoresis immunoassay via ProteinSimple®: Quantification of all protein targets was achieved using Simple Western analysis in a Jess™ apparatus per the manufacturer's protocol (ProteinSimple, Bio-techne, Minneapolis, MN). […] Following homogenization and centrifugation (10,000×g, 5 min, 4° C.), protein concentration was determined in tissue protein supernatant samples using DC Protein Assay (Cat. No. 5000112, Bio-Rad Laboratories, Hercules, California) according to manufacturer instructions. […] Antibody diluent (ProteinSimple, Bio-techne, Minneapolis, MN) was used for all antibody dilutions as follows: PRMT4 (1:50, RRID: AB_2068436), PRMT6 (1:100, Cell Signaling Technology cat. 14641), eNOS (1:200, RRID: AB_10850618), nNOS (1:100, RRID: AB_2152488), iNOS (1:100, RRID: AB_10000625), DDAH2 (1:50, RRID: AB_2640442) Antibodies were detected using HRP-conjugated secondary anti-rabbit, and -mouse. […]

[2] = tested on: aged 3xTg-AD female mice; test: T-maze spontaneous alternation; assay type: in vivo, mouse; settings: 30 mg/kg, 7 days, IP
Method: FIGS. 20A and 20B are two graphs showing PRMT4 inhibitor (TP-064) or AAV knockdown of PRMT4 improved functional learning/memory in aged 3xTg-AD female mice. […] C57 but increased with administration of TP-064 (30 mg/kg, 7 days, IP). In FIG. 20B, in Novel Object Recognition, aged 3xTg-AD female mice had fewer number of entries in the novel zone v. C57. Treatment with TP-064 or brain-specific AAV knockdown of PRMT4 increased the number of entries. T-maze and novel object recognition test were utilized to analyze working/short-term and reference/long-term memory, respectively. * p<0.05 v. C57 via one-way ANOVA with Tukey's post-hoc analyses.

[3] = aged 3xTg-AD female mice, 30 mg/kg for 7 days, normalized to total protein

SMILES: CNCCN1CCC(c2cc(CN(C)C(=O)c3cccc(Oc4ccccc4)c3)ccn2)CC1 [TP-064, N-Methyl-N-((2-(1-(2-(methylamino)ethyl)piperidin-4-yl)pyridin-4-yl)methyl)-3-phenoxybenzamide]
- PRMT4 expression in whole brain lysate ([1]; 3xTg-AD mice, 7.5, 15 and 30 mg/kg, 7 days, relative to untreated 3xTg-AD): reduced PRMT4 expression in whole brain lysate in a dose-dependent manner
- cortical PRMT4 protein level [1, 3]: reduced
- hippocampal PRMT4 protein level [1, 3]: reduced
- T-maze spontaneous alternation ratio [2]: increased
